According to patent US11957769B2, “Polyhydroxy fullerene sunscreen active agents and compositions” (THE CLEVELAND CLINIC FOUNDATION, priority 2016, dated 2024):

Key:
[1] = Photolability, comparison of sunscreen actives (Table 1); format: physicochemical; details: Table 1 comparison of actives
[2] = cited from earlier work
[3] = cited from earlier work; remark: listed apart in the source
hairless SKH-1 mice = test: UV damage in skin of hairless SKH-1 mice after topical PHF
Procedure: PHF (obtained from MER Corp.) was dissolved in water and applied on the right flank (2 cm×1 cm) of the dorsal region of hairless SKH-1 mice. The left flank (2 cm×1 cm) of the same mouse was used as a control with topical application of deionized water. The topical applications were allowed to dry for 15 minutes followed by UV exposure (80 mJ/cm^2; 90% UVB and 10% UVA). […] Mice were euthanized 48 hours post-UV exposure, and the skin was harvested for histological analysis or immunofluorescent staining.

skin sections = test: Blinded scoring of erythema and edema of UVB-exposed skin sections in a preclinical model; format: in vivo; details: UVB 120 mJ/cm^2, 48 hours, blinded panel
Procedure: PHF is a single, multifunctional active that replaces multiple actives of current sunscreen formulations. […] The concentration of PHF was optimized and the minimum concentration of PHF that prevents symptoms of sunburn (erythema and edema) was determined. In a preclinical model, different skin sections were applied with PHF formulation, SPF60 commercial sunscreen, vehicle (without PHF) samples and control (no application). All skin sections were exposed to UVB at 120 mJ/cm^2 dose. The skin sections were monitored for erythema (redness) and edema (swelling) at 24, 48 and 72 hours. Maximum erythema is usually observed at 48 hours. The photographs of skin sections at 48 hours were scored by a panel consisting of two dermatologists and two non-dermatologists. The panel was blinded to the identity of the samples. The result of blinded scoring study is plotted in FIG. 5. […] [table]

[4] = UV-Visible absorbance spectra of PHF solution vs commercial SPF60 sunscreen; format: physicochemical; details: PHF solution 0.5 mg/mL in 25% glycerol
Procedure: The inventors discovered that PHF absorbs UV more effectively than commercial sunscreens. For initial comparisons (FIG. 2), the UV-Vis absorption of PHF solution at 0.5 mg/mL (prepared in 25% glycerol) was compared with Neutrogena SPF 60 (4.9% Titanium dioxide and 4.7% Zinc oxide) sunscreen at 5 mg/mL (in de-ionized water). The total concentration of AI in the commercial sunscreen suspension was equal to that of PHF (0.5 mg/mL) solution. PHF is a broad spectrum UV absorber, as its critical wavelength of 381 nm and UVA/UVB ratio of 1.6 exceeds the FDA limit of 370 nm and 0.91, respectively. The absorbance of PHF is 2.5-1.9 times higher in the UVB region (280-320 nm) and 1.9-1.5 times higher in the UVA region (320-400 nm) than SPF60 sunscreen. This high UV absorptive ability of PHF (for preventing direct damage from UVB and UVA) becomes even more important when combined with other potential advantages of PHF (preventing indirect free radical mediated damage) over current sunscreen AIs, as summarized in Table 1 and FIG. 3.

Nrf2 pathway = details: Ye et al. 2014; cited from earlier work
[5] = 48 hours post-UV exposure, vs water control flank

polyhydroxy fullerene [PHF]
Photolabile [1]: No | ROS susceptibility ([2]; Table 1 comparison of actives): Catalytically | neutralization of free radicals ([2]; superoxide, nitric oxide, etc., Yin et al. 2009): can catalytically neutralize different types of free radicals | free radical generation on UV absorption ([3]; Krishna et al. 2008): without generating free radicals | Potential ROS generation ([3]; Table 1 comparison of actives): None | erythema (sunburn) (hairless SKH-1 mice; 24 hours after UV exposure (80 mJ/cm^2; 90% UVB and 10% UVA), topical PHF in water vs water control flank): did not show any signs of erythema | DNA photoproducts (cyclopyrimidine dimers, CPD) (hairless SKH-1 mice; [5]): fewer DNA photoproducts | epidermal cell death (dyskeratotic sunburn cells), histology (hairless SKH-1 mice; [5]): marked reduction in epidermal cell death | recovery of proliferation (Ki-67) (hairless SKH-1 mice; [5]): faster recovery of proliferation | erythema and edema score vs commercial SPF60 sunscreen (skin sections): on par with commercial SPF60 sunscreen | erythema and edema score vs control and vehicle only (skin sections; α=0.01): reduced erythema and edema significantly | UVA/UVB ratio ([4]; FDA limit 0.91): 1.6 | critical wavelength ([4]; FDA limit 370 nm): 381 nm | Nrf2 pathway activation (Nrf2 pathway): activates the Nrf2 pathway
